Data from patent publication US7524503B2, “Human cytomegalovirus (HCMV) cytotoxic T cell epitopes, polyepitopes compositions comprising same and diagnostic and prophylactic and therapeutic uses therefor” (priority 2001, dated 2009).

Columns and labels:
HLA A3 = biological target: T1, HLA A3 (Homo sapiens, UniProt P04439); experiment: MHC stabilization assay on T2 cells; type: cell-based; conditions: HLA A3 on transfected T2 cells; relative increase vs no peptide at 26° C.
T1 construct: EGFP; expressed in transfected cells; host or cells: T2 cells
T1 sequence (P04439 25-365): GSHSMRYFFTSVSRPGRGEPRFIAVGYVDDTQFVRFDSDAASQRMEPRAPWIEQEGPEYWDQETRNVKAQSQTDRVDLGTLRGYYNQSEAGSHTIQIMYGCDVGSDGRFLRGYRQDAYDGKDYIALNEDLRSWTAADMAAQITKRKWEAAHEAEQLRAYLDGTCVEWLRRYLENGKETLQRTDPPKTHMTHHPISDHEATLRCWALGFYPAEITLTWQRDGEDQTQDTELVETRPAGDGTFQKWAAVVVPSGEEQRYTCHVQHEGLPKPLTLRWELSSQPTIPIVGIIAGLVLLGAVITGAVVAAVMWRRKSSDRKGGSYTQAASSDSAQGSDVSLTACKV
T1 sequence (P61769 21-119, further chain): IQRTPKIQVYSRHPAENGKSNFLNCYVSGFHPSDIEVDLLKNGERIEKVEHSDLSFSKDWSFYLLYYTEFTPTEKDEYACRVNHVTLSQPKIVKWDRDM

[1] = tested on: PBMC from healthy HCMV seropositive donors; experiment: IFN-γ ELISPOT assay; type: cell-based, human; conditions: peptide 10 μg/ml
In short: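 PBMC from healthy HCMV-seropositive donors (2.5×10^5 cells/well) were stimulated 18 h at 37° C with individual synthetic HCMV peptides (10 μg/ml) on anti-IFN-γ-coated nitrocellulose. IFN-γ spots were developed with biotinylated antibody and streptavidin-alkaline phosphatase and counted automatically. Counts were averaged over 3 wells, and no-peptide wells were subtracted.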

[2] = tested on: peptide-sensitized autologous PHA blasts or LCLs; type: cell-based, human; design: key to CTL response: Y: Yes; ND: Not detected; conditions: overlapping 20mer peptides, Table 4
CD4+ T cells = experiment: CD4+/CD8+ analysis of 20-mer peptides (intracellular IFN-γ staining or depletion ELISPOT); type: cell-based, human
Experimental: (§1) To determine whether a particular 20-mer peptide contained either a CD4^+- or CD8^+-restricted epitope, or both, CD4^+/CD8^+ cell depletion ELISPOT assays were performed on PBMC from healthy virus carriers. For any one experiment, three populations of cells were used: a) CD8^+-depleted PBMC, b) CD4^+-depleted PBMC, and c) non-depleted PBMC. These populations of cells were tested concurrently with the same peptides in a conventional ELISPOT assay as described herein above. DYNABEADS M-450 (Dynal, Oslo, Norway) that bound specifically to CD4^+- or CD8^+ cells were used to perform the depletion essentially according to manufacturers instructions. Beads were washed twice in cold PBS supplemented with 2% FCS using magnetic isolation. The requisite number of cells was resuspended in cold PBS supplemented with 2% FCS, added to the beads and then incubated at 4° C., in the dark, for 30 mins (CD8^+ beads) or 60 mins (CD4^+ beads). Populations were depleted of CD4^+ or CD8^+ cells using magnetic separation. After depletion, the non-attached cells were removed and washed once in growth medium, counted and used in conventional ELISPOT assay. Depleted cells were used at 1.7×10^5 cells per well and the non-depleted population was used at the standard 2.5×10^5 cells per well. After the depletion step, each respective cell population was assessed for the purity of CD4^+ and CD8^+ T cells by three-colour flow cytometry. Samples of depleted cell populations were stained with anti-CD3 antibody directly conjugated to fluorescein isothiocyanate (FITC), anti-CD4 antibody conjugated with phycoerythrin (PE) fluorochrome, and anti-CD8 antibody conjugated with Tricolor fluorochrome (described below). The percent of CD3^+/CD4^+ cells present within the CD8^+-depleted population and the percent of CD3^+/CD8^+ cells present within the CD4^+-depleted populations were assessed on FACSCalibur cytometer (Becton Dickinson). The purity of each population was greater than 90% and the results from the ELISPOT assays are expressed as the percentage of CD4+ or CD8^+ cells within the depleted populations that responded toward each peptide by producing IFN-γ.
(§2) PBMCs were incubated at 37° C. in RPMI+10% FCS with and without 10 μg/ml peptides for 6 hours. Golgiplug™ (Pharmingen, San Diego, Calif., USA) was added to the samples according to manufacturer's instructions during the second hour of incubation and cells activated with 25 ng/ml phorbol 12-myristidate 13-acetate (PMA; Sigma-Aldrich Co, St. Louis Mo.) and 1 μg/ml iomomycin (Sigma) acted as a positive control. Following the incubation, 1×10^6 cells/sample were washed and resuspended in staining buffer consisting of PBS with GolgiPlug™, 3% FCS and sodium azide. Cells were then stained with FITC conjugated anti-CD3-FITC (UCHT1, Immunotech, Marseille, France), and either Tricolor (TRI) conjugated anti-CD4 (S3.5, Caltag, Burlingame, Calif.) or anti-CD8 (3B5, Caltag) for 30 minutes, 4° C. in the dark. The cells were fixed for 20 min at 4° C. with Cytofix/Cytoperm™ (BD Biosciences) and resuspended in Perm/Wash™ permeabilization buffer (BD Biosciences) according to manufacturers protocol. Fixed cells were stained with phycoerythrin (PE) conjugated anti-human IFN-γ (B27, Pharmingen) for 30 min at 4° C. in the dark. As a negative control, cells were stained with appropriate isotype matched control antibodies. Cells were washed twice in permeabilization buffer and resuspended in staining buffer before analysis by three-colour flow cytometry on a FACSCalibur cytometer (BD Biosciences). All data analysis was carried out using FlowJo software (Tree Star, Inc. San Carlos, CA).
(§3) When using 20-mer peptides to map epitopes by ELISPOT, it is possible that some responses may be MHC class-II restricted, and not necessarily restricted through HLA class I alleles. It was evident throughout this study that some epitopes identified using ELISPOT could not be confirmed using cytotoxicity analysis. […]

CD8+ T cells = experiment: as above; type: cell-based, human
Experimental: as §1, §2, §3

TLLNCAVTK (human cytomegalovirus pp50 CTL epitope peptide)
MSE (MHC stabilization efficiency) (HLA A3): +++ (+++ = 200-300%)

ELLGRLNVY (human cytomegalovirus pp28 CTL epitope peptide)
MSE (MHC stabilization efficiency) (HLA A3): − (− = 0-50%)

SLRNSTVVR (human cytomegalovirus gH CTL epitope peptide)
MSE (MHC stabilization efficiency) (HLA A3): +++ (+++ = 200-300%)

RQTEKHELLVLVKKAQLNRH
ELISPOT Responses (SFC/10^6 PBMC) ([1]; donor fourteen): RK(313) SFC/10^6 PBMC | CTL response [2]: Y | Responding cells (% CD4) (CD4+ T cells; donor fourteen): 1.52% | Responding cells (% CD8) (CD8+ T cells; donor fourteen): 0.57%

AIIGIYLLY (human cytomegalovirus gH CTL epitope peptide)
MSE (MHC stabilization efficiency) (HLA A3): NT/+++ (+++ = 200-300%)

TYEKYGNVSVFETSGGLVVF (human cytomegalovirus gB CTL epitope peptide)
ELISPOT Responses (SFC/10^6 PBMC) ([1]; donor delta): SE(75) SFC/10^6 PBMC | CTL response [2]: Y | Responding cells (% CD4) (CD4+ T cells; donor delta): 0% | Responding cells (% CD8) (CD8+ T cells; donor delta): 0.097%

LVRLVYILSK (human cytomegalovirus gH CTL epitope peptide)
MSE (MHC stabilization efficiency) (HLA A3): +++ (+++ = 200-300%)

MNGQQIFLEVQAIRETVELR
ELISPOT Responses (SFC/10^6 PBMC) ([1]; donor alpha): 277 SFC/10^6 PBMC | ELISPOT Responses (SFC/10^6 PBMC) ([1]; donor two): 2985 SFC/10^6 PBMC | CTL response [2]: Y | Responding cells (% CD4) (CD4+ T cells; donor two): 0.26% | Responding cells (% CD8) (CD8+ T cells; donor two): 0.48%

RSYAYIYTTYLLGSNTEYVA (human cytomegalovirus gB CTL epitope peptide)
ELISPOT Responses (SFC/10^6 PBMC) ([1]; donor fourteen): RK(170) SFC/10^6 PBMC | CTL response [2]: Y | Responding cells (% CD4) (CD4+ T cells; donor fourteen): 0.39% | Responding cells (% CD8) (CD8+ T cells; donor fourteen): 0.58%

GIKHEGLVK (human cytomegalovirus pp28 CTL epitope peptide)
MSE (MHC stabilization efficiency) (HLA A3): +++ (+++ = 200-300%)

WPRERAWALKNPHLAYNPFR (human cytomegalovirus pp150 CTL epitope peptide)
ELISPOT Responses (SFC/10^6 PBMC) ([1]; donor twelve): RE(83) SFC/10^6 PBMC | CTL response [2]: Y | Responding cells (% CD4) (CD4+ T cells; donor twelve): 0.03% | Responding cells (% CD8) (CD8+ T cells; donor twelve): 0.27%

VFTWPPWQAGILARNLVPMV
ELISPOT Responses (SFC/10^6 PBMC) ([1]; donor delta): 533 SFC/10^6 PBMC | ELISPOT Responses (SFC/10^6 PBMC) ([1]; donor four): 420 SFC/10^6 PBMC | CTL response [2]: Y | Responding cells (% CD4) (CD4+ T cells; donor delta): 0% | Responding cells (% CD8) (CD8+ T cells; donor delta): 0.45%

GVMTRGRLK
MSE (MHC stabilization efficiency) (HLA A3): +++ (+++ = 200-300%)

ELYLMGSLVH (human cytomegalovirus gH CTL epitope peptide)
MSE (MHC stabilization efficiency) (HLA A3): − (− = 0-50%)

YPSAAERKHRHLPVADAVIH
ELISPOT Responses (SFC/10^6 PBMC) ([1]; donor delta): SE(350) SFC/10^6 PBMC | CTL response [2]: Y | Responding cells (% CD4) (CD4+ T cells; donor delta): 0% | Responding cells (% CD8) (CD8+ T cells; donor delta): 0.313%
